Experimental data: ChEMBL document CHEMBL1128704, “(R)-11-hydroxy- and (R)-11-hydroxy-10-methylaporphine: synthesis, pharmacology, and modeling of D2A and 5-HT1A receptor interactions” (J Med Chem, 1995)

How the values were obtained:
[1] = molecular target: T1, 5-hydroxytryptamine receptor 1A (Rattus norvegicus, UniProt P19327); test: Ability to displace [3H]8-OH-DPAT binding to rat hippocampal 5-hydroxytryptamine 1A receptor; format: tissue-based, Hippocampus
T1 sequence (P19327 whole entry): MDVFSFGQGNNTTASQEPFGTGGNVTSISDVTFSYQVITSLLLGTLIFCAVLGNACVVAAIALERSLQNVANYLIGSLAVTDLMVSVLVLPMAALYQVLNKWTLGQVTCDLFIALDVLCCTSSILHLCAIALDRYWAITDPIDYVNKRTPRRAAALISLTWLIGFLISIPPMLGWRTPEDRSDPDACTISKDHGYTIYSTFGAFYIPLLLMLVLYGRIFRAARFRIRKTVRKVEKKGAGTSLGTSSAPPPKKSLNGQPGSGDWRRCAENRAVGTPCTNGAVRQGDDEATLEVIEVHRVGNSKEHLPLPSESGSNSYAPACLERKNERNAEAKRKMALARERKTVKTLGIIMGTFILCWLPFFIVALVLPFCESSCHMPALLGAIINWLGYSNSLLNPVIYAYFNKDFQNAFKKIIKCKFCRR

[2] = molecular target: T1, 5-hydroxytryptamine receptor 1A; test: (§1) Ability to inhibit 5-HT sensitive,forskolin-stimulated adenylyl cyclase(FSC) activity in rat hippocampal membranes mediated through 5-hydroxytryptamine 1A receptor; format: functional, cell membranes
[3] = molecular target: D(1A) dopamine receptor (Rattus norvegicus, UniProt P18901); test: Ability to displace [3H]SCH-23390 binding to rat striatal Dopamine receptor D1
[4] = molecular target: D(2) dopamine receptor (Homo sapiens, UniProt P14416); test: Ability to displace [3H]raclopride binding to cloned human Dopamine receptor D2A
[5] = molecular target: T2, 5-hydroxytryptamine receptor 1A (Rattus norvegicus) (UniProt P19327); test: as §1; format: functional, cell membranes; settings: concentration not given here
T2 sequence (whole entry): T1 sequence (P19327 whole entry)

D(2) dopamine receptor, sequence (P14416 whole entry): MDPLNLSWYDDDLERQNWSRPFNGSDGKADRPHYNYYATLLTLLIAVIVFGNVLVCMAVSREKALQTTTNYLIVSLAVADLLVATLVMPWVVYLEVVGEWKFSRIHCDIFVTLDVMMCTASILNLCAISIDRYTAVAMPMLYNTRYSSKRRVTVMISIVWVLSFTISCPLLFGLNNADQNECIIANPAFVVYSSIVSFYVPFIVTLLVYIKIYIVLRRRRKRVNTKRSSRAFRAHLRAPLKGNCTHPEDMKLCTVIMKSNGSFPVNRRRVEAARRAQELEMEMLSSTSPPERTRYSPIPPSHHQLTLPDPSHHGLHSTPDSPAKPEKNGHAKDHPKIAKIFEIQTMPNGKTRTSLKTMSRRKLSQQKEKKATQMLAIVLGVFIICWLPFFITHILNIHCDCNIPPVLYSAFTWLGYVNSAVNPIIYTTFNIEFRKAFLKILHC
D(1A) dopamine receptor, sequence (P18901 whole entry): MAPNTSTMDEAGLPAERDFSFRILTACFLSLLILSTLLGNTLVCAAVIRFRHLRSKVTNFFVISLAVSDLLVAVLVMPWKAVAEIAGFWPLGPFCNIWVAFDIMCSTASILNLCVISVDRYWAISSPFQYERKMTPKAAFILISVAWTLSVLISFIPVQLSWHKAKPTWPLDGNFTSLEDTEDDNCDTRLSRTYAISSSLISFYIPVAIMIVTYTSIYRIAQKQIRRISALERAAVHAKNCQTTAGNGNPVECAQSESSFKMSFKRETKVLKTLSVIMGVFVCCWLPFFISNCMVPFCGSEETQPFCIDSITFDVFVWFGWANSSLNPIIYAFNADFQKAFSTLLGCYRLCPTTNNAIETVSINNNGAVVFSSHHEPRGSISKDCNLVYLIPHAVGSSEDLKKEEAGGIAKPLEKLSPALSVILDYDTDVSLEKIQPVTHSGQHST

Row | Compound | Ki [1] [µM] | EC50 [2] [µM] | Ki [3] [µM] | Ki [4] [µM] | inhibition [5] [%]
1 | Cc1ccc2c(c1O)-c1cccc3c1[C@@H](C2)N(C)CC3 | 0.00045 | 0.055 | 0.382 | 1.07 | 102
2 | CN1CCc2cccc3c2[C@H]1Cc1cccc(O)c1-3 | 0.0096 | 5.2 | 0.0204 | 0.0585 | 60
